The target of the assay is T1, recombinant full-length human prolyl endopeptidase (PREP) (Homo sapiens, UniProt P48147).
T1 construct: To recombinant full-length human prolyl endopeptidase (PREP, R&D-Systems, 4308-SE); purchased R&D-Systems 4308-SE
T1 sequence (P48147 1-710): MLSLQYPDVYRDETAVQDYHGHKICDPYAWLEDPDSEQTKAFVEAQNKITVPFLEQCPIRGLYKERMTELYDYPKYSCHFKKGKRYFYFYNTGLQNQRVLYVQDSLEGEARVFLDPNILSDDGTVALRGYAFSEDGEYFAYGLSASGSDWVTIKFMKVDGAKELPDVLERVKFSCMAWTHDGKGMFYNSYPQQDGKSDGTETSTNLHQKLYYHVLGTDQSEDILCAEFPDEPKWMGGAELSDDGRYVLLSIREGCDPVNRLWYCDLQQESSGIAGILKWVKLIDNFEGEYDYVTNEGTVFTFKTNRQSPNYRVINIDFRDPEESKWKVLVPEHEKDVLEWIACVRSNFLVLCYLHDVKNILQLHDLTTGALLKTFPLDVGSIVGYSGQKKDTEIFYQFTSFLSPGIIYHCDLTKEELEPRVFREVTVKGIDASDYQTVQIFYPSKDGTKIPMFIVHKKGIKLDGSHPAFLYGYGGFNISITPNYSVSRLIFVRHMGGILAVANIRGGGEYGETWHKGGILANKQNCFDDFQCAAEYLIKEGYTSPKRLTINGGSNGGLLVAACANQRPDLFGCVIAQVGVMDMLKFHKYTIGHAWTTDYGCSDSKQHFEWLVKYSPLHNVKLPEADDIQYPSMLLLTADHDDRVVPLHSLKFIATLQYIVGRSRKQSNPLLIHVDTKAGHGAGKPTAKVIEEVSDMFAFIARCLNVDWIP
Kind of assay: Biochemical human prolyl endopeptidase (PREP) assay with fluorescently labelled substrate. The note with it: substrate Z-Gly-Pro-AMC 50 μM, 32° C., 60 min; some as mean values from multiple independent determinations. The gist of the method:
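Initial rates of fluorescence increase from 50 μM Z-Gly-Pro-AMC cleavage (ex 360/em 465 nm, 60 min, 32° C) give percent PREP activity versus no-compound control, and IC50 is interpolated. Enzyme used at 0.4 nM (final, example) in Tris pH 7.5 with EDTA, GSH, BSA and Brij-35; compounds span 1 nM to 30 μM.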
With `Cc1ccc(Cn2nc3n(c2=O)[C@H](C(=O)N2CC[S+]([O-])C2)CCC3)cc1` (single isomer, unassigned) [Example 193], the IC50 (in general, the concentration at which inhibition is half-maximal) was 0.42 nM.

For `Cc1ccc(Cn2nc3n(c2=O)[C@H](C(=O)N2CC[S+]([O-])C2)CCC3)cc1` (single isomer, unassigned) [Example 194], the IC50 turned out to be 0.375 nM.

For the compound `O=C([C@@H]1CCCc2nn(Cc3ccc(Cl)nc3)c(=O)n21)N1CCC2CC21` (single isomer, unassigned) [Example 197], the IC50 came to 235 nM.

`O=C([C@@H]1CCCc2nn(Cc3ccc(Cl)nc3)c(=O)n21)N1CCC2CC21` (single isomer, unassigned) [Example 198]: the IC50 came to 1.03 nM.

Regarding `O=C([C@@H]1CCCc2nn(Cc3ccc(C(F)(F)F)nc3)c(=O)n21)N1CCC2CC21` (single isomer, unassigned) [Example 200], the IC50 stood at 455 nM.

Regarding `O=C([C@@H]1CCCc2nn(Cc3ccc(C(F)(F)F)nc3)c(=O)n21)N1CCC2CC21` (single isomer, unassigned) [Example 201], the IC50 came to 5.45 nM.

Consider `O=C([C@@H]1CCCc2nn(Cc3ccc(F)c(Cl)c3)c(=O)n21)N1CCC2CC21` (single isomer, unassigned) [Example 202], for which the IC50 stood at 19 nM.

For `O=C([C@@H]1CCCc2nn(Cc3ccc(F)c(Cl)c3)c(=O)n21)N1CCC2CC21` (single isomer, unassigned) [Example 203], the IC50 stood at 0.82 nM.

As for `CC(c1ccc(C(F)(F)F)nc1)n1nc2n(c1=O)[C@H](C(=O)N1CC[C@H](F)C1)CCC2` (single isomer, unassigned) [Example 216], the half-maximal inhibitory concentration (IC50) came to 0.56 nM.

For the compound `CC(c1ccc(C(F)(F)F)nc1)n1nc2n(c1=O)[C@H](C(=O)N1CC[C@H](F)C1)CCC2` (single isomer, unassigned) [Example 217], the IC50 amounted to 1.2 nM.

Take `CC(c1ccc(C(F)(F)F)nc1)n1nc2n(c1=O)[C@H](C(=O)N1C[C@@H](F)[C@@H](F)C1)CCC2` (single isomer, unassigned) [Example 218]: the IC50 came to 3.3 nM.

Consider `CC(c1ccc(C(F)(F)F)nc1)n1nc2n(c1=O)[C@H](C(=O)N1C[C@@H](F)[C@@H](F)C1)CCC2` (single isomer, unassigned) [Example 219], for which the IC50 amounted to 7.3 nM.

Take `CC1CCC(C(=O)N2CC[C@H](F)C2)n2c1nn(Cc1ccc(C(F)(F)F)nc1)c2=O` (single isomer, unassigned) [Example 221]: the 50% inhibitory concentration (IC50) turned out to be 980 nM.

For the compound `CC1CCC(C(=O)N2CC[C@H](F)C2)n2c1nn(Cc1ccc(C(F)(F)F)nc1)c2=O` (single isomer, unassigned) [Example 222], the IC50 stood at 1.1 nM.

Take `Cc1ccc(Cn2nc3n(c2=O)C(C(=O)N2CCCC2)CC(C(F)(F)F)C3)cc1` (single isomer, unassigned) [Example 225, (5RS,7RS)-2-(4-Methylbenzyl)-5-(pyrrolidin-1-ylcarbonyl)-7-(trifluoromethyl)-5,6,7,8-tetrahydro[1,2,4]triazolo[4,3-a]pyridin-3(2H)-one]: the IC50 stood at 0.23 nM.

With `Cc1ccc(Cn2nc3n(c2=O)C(C(=O)N2CCCC2)CC(C(F)(F)F)C3)cc1` (single isomer, unassigned) [Example 226, (5RS,7RS)-2-(4-Methylbenzyl)-5-(pyrrolidin-1-ylcarbonyl)-7-(trifluoromethyl)-5,6,7,8-tetrahydro[1,2,4]triazolo[4,3-a]pyridin-3(2H)-one], the IC50 came out at 3.6 nM.

For the compound `O=C(C1CC(C(F)(F)F)Cc2nn(Cc3ccc(Cl)nc3)c(=O)n21)N1CCCC1` (single isomer, unassigned) [Example 227, (5RS,7RS)-2-[(6-Chloropyridin-3-yl)methyl]-5-(pyrrolidin-1-ylcarbonyl)-7-(trifluoromethyl)-5,6,7,8-tetrahydro[1,2,4]triazolo[4,3-a]pyridin-3(2H)-one], the IC50 turned out to be 24 nM.

Regarding `O=C(C1CC(C(F)(F)F)Cc2nn(Cc3ccc(Cl)nc3)c(=O)n21)N1CCCC1` (single isomer, unassigned) [Example 228, (5RS,7RS)-2-[(6-Chloropyridin-3-yl)methyl]-5-(pyrrolidin-1-ylcarbonyl)-7-(trifluoromethyl)-5,6,7,8-tetrahydro[1,2,4]triazolo[4,3-a]pyridin-3(2H)-one], the IC50 turned out to be 2.2 nM.

`O=C(C1CC(C(F)(F)F)Cc2nn(Cc3ccc(Cl)nc3)c(=O)n21)N1CCCC1` (single isomer, unassigned) [Example 229, (5RS,7RS)-2-[(6-Chloropyridin-3-yl)methyl]-5-(pyrrolidin-1-ylcarbonyl)-7-(trifluoromethyl)-5,6,7,8-tetrahydro[1,2,4]triazolo[4,3-a]pyridin-3(2H)-one]: the half-inhibitory concentration (IC50) turned out to be 0.34 nM.

Take `O=C(C1CC(C(F)(F)F)Cc2nn(Cc3ccc(Cl)nc3)c(=O)n21)N1CCC(F)(F)C1` (single isomer, unassigned) [Example 231, (5RS,7RS)-2-[(6-Chloropyridin-3-yl)methyl]-5-[(3,3-difluoropyrrolidin-1-yl)carbonyl]-7-(trifluoromethyl)-5,6,7,8-tetrahydro[1,2,4]triazolo[4,3-a]pyridin-3(2H)-one]: the IC50 was found to be 48 nM.

With `O=C(C1CC(C(F)(F)F)Cc2nn(Cc3ccc(Cl)nc3)c(=O)n21)N1CCC(F)(F)C1` (single isomer, unassigned) [Example 232, (5RS,7RS)-2-[(6-Chloropyridin-3-yl)methyl]-5-[(3,3-difluoropyrrolidin-1-yl)carbonyl]-7-(trifluoromethyl)-5,6,7,8-tetrahydro[1,2,4]triazolo[4,3-a]pyridin-3(2H)-one], the IC50 was 400 nM.

As for `O=C(C1CC(C(F)(F)F)Cc2nn(Cc3ccc(C(F)(F)F)nc3)c(=O)n21)N1CC(O)C1` (single isomer, unassigned) [Example 234, (5RS,7RS)-5-[(3-Hydroxyazetidin-1-yl)carbonyl]-7-(trifluoromethyl)-2-{[6-(trifluoromethyl)pyridin-3-yl]methyl}-5,6,7,8-tetrahydro[1,2,4]triazolo[4,3-a]pyridin-3(2H)-one], the half-maximal inhibitory concentration (IC50) was found to be 120 nM.

With `O=C([C@@H]1C[C@@H](C(F)(F)F)Cc2nn(Cc3ccc(C(F)(F)F)nc3)c(=O)n21)N1CC[C@H](F)C1` (single isomer, unassigned) [Example 237], the concentration for half-maximal inhibition (IC50) is 0.94 nM.

As for `O=C(C1CC(C(F)(F)F)Cc2nn(Cc3ccc(Cl)nc3)c(=O)n21)N1CC(F)C1` (single isomer, unassigned) [Example 238, (5RS,7RS)-2-[(6-Chloropyridin-3-yl)methyl]-5-[(3-fluoroazetidin-1-yl)carbonyl]-7-(trifluoromethyl)-5,6,7,8-tetrahydro[1,2,4]triazolo[4,3-a]pyridin-3(2H)-one], the IC50 was 73 nM.

As for `O=C(C1CC(C(F)(F)F)Cc2nn(Cc3ccc(Cl)nc3)c(=O)n21)N1CC(F)C1` (single isomer, unassigned) [Example 239, (5RS,7RS)-2-[(6-Chloropyridin-3-yl)methyl]-5-[(3-fluoroazetidin-1-yl)carbonyl]-7-(trifluoromethyl)-5,6,7,8-tetrahydro[1,2,4]triazolo[4,3-a]pyridin-3(2H)-one], the half-maximal inhibitory concentration (IC50) turned out to be 11.2 nM.

As for `O=C(C1CC(C(F)(F)F)Cc2nn(Cc3ccc(Cl)nc3)c(=O)n21)N1CC(F)C1` (single isomer, unassigned) [Example 240, (5RS,7RS)-2-[(6-Chloropyridin-3-yl)methyl]-5-[(3-fluoroazetidin-1-yl)carbonyl]-7-(trifluoromethyl)-5,6,7,8-tetrahydro[1,2,4]triazolo[4,3-a]pyridin-3(2H)-one], the half-inhibitory concentration (IC50) came to 4.2 nM.

Take `O=C(C1CC(C(F)(F)F)Cc2nn(Cc3ccc(Cl)nc3)c(=O)n21)N1CC[C@H](F)C1` (single isomer, unassigned) [Example 243]: the IC50 turned out to be 0.623 nM.

As to `O=C(C1CC(C(F)(F)F)Cc2nn(Cc3ccc(Cl)nc3)c(=O)n21)N1CC[C@H](F)C1` (single isomer, unassigned) [Example 244], the concentration for half-maximal inhibition (IC50) amounted to 11 nM.

Regarding `O=C(C1CC(C(F)(F)F)Cc2nn(Cc3ccc(Cl)nc3)c(=O)n21)N1CC[C@@H](F)C1` (single isomer, unassigned) [Example 246], the 50% inhibitory concentration (IC50) was determined as 1.3 nM.

Take `O=C(C1CC(C(F)(F)F)Cc2nn(Cc3ccc(Cl)nc3)c(=O)n21)N1CC[C@@H](F)C1` (single isomer, unassigned) [Example 247]: the IC50 worked out at 910 nM.

`O=C(C1CC(C(F)(F)F)Cc2nn(Cc3ccc(Cl)nc3)c(=O)n21)N1C[C@@H](F)[C@@H](F)C1` (single isomer, unassigned) [Example 248]: the IC50 turned out to be 12 nM.

As for `O=C(C1CC(C(F)(F)F)Cc2nn(Cc3ccc(Cl)nc3)c(=O)n21)N1C[C@@H](F)[C@@H](F)C1` (single isomer, unassigned) [Example 249], the IC50 is 0.83 nM.

The values are drawn from patent US10722501B2 (BAYER AKTIENGESELLSCHAFT, priority 2016, dated 2020).
